Experimental data taken from patent US12447161B2, “Topical pharmaceutical formulation” (RaDes GmbH, priority 2021, dated 2025).
“Also recorded” adds a separate entry of the source.

Assays:
[1] = cited from earlier work
[2] = Re-precipitation of mometasone furoate in solvent systems of Ex. 10 and 11 of DE102006034883; assay type: physicochemical; conditions: then 40.56 parts of water
Procedure: Similar to Example 7 above, dissolution behaviour of mometasone furoate was also tested for the DIPA-containing prior art cream formulations described in examples 10 and 11 of DE102006034883. For this purpose, mometasone furoate was dissolved in solvent systems based on Ex. 10 and 11 as follows:
Ex. 10: 0.1 parts mometasone furoate were dissolved in 1 part phenoxy ethanol and 10 parts hexylene glycol, resulting in a clear solution.
Ex. 11: 0.1 parts mometasone furoate were dissolved in 1 part phenoxy ethanol and 10 parts diethylene glycol monoethyl ether (Transcutol®), resulting in a clear solution.

[3] = Solubility of mometasone furoate in solvents of prior art formulations; assay type: physicochemical
Procedure: Dissolution studies were performed with mometasone furoate in both the oil phase and the aqueous phase of the DIPA-containing lotion formulations of Examples 3 and 9 of DE102006034883 to determine the solubility of mometasone furoate in mg/ml in said formulations. For this purpose, first, the liquid excipients of the oil phase and the aqueous phase were mixed in the correct relative amounts to form the respective solvent systems; the low amounts of solid excipients contained in the formulations were not considered. Based on the weight ratio between oil and water phase, the theoretical solubility of mometasone furoate in the complete formulation can then be estimated using the formula: [proportion of oil phase·solubility in oil phase]+[proportion of aqueous phase·solubility in aqueous phase] For instance, for Ex. 3 of DE102006034883, the oil phase (paraffinum liquidum) makes up about 20 wt. %, the remainder is the aqueous phase. […] For instance, for Ex. 9 of DE102006034883, the oil phase makes up 27.88 wt. %, the remainder is the aqueous phase.

solubility in liquid paraffin [3]: about 0.05 mg/mL | Solubility of mometasone furoate ([3]; Aqueous phase Ex. 3 of DE102006034883 (phenoxy ethanol, polysorbate 40, Transcutol, water)): 150 µg/mL | Solubility of mometasone furoate ([3]; Aqueous phase Ex. 9 of DE102006034883 (phenoxy ethanol, Steareth 21, hexylene glycol, water)): 90 µg/mL | Solubility of mometasone furoate ([3]; Oil phase Ex. 3 of DE102006034883 (liquid paraffin)): 50 µg/mL | Solubility of mometasone furoate ([3]; Oil phase Ex. 9 of DE102006034883 (MCT, DIPA, liquid paraffin, Capryol 90)): 830 µg/mL | overall theoretical solubility ([3]; complete formulation Ex. 3 of DE102006034883): about 0.13 mg/ml | overall theoretical solubility ([3]; complete formulation Ex. 9 of DE102006034883): about 0.293 mg/ml
Structure (SMILES): C[C@@H]1C[C@H]2[C@@H]3CCC4=CC(=O)C=C[C@]4(C)[C@@]3(Cl)[C@@H](O)C[C@]2(C)[C@@]1(OC(=O)c1ccco1)C(=O)CCl [mometasone furoate, 9α,21-dichloro-11β,17α-dihydroxy-16α-methylpregna-1,4-diene-3,20-dione 17-(2-furoate)]
log P [1]: about 4 | water solubility [1]: about 0.95 μg/mL | behaviour on addition of aqueous phase ([2]; Ex. 10 solvent system: phenoxy ethanol, hexylene glycol): precipitation of mometasone furoate; also recorded: precipitated | behaviour on addition of aqueous phase ([2]; Ex. 11 solvent system: phenoxy ethanol, Transcutol®): precipitation of mometasone furoate; also recorded: precipitated
